Source: patent US20250144067A1, “PERSONALIZED STARVATION THERAPY FOR CANCER” (Faeth Therapeutics, Inc., priority 2021, published 2025)
Counter-ions that a name gives are not always drawn.

Experiments:
[1] = tested on: NCI-H292 lung cancer cells; assay: FDA drug screening, complete media vs cholesterol-free media without statin (TABLE 1); assay type: cell-based, human
[2] = tested on: NCI-H292 lung cancer cells; assay: FDA drug screening, complete media vs cholesterol-free media with simvastatin (TABLE 2); assay type: cell-based, human; conditions: for Cholesterol-free media + simvastatin (0.04 μM) / Complete Media: NCI-H292 cells
[3] = Complete minus Cholesterol-free, […]
[4] = NCI-H292 cells, FDA drug library screen, cholesterol-free media without statin
[5] = NCI-H292 cells, FDA drug library screen, complete media
[6] = cholesterol-free media with simvastatin 0.04 μM, FDA drug library screen (TABLE 2)
[7] = complete media, FDA drug library screen (TABLE 2)
[8] = FDA drug library screen, cholesterol-free media with simvastatin 0.04 μM
[9] = FDA drug library screen, complete media
[10] = complete media minus cholesterol-free media + simvastatin, >0 enhanced anti-cancer activity, about 0 neutral, <0 antagonist
[11] = Complete minus Cholesterol-free, >0 enhanced anti-cancer activity, about 0 neutral, <0 antagonist
[12] = NCI-H292 cells, cholesterol-free media without statin
[13] = complete media minus cholesterol-free media + simvastatin (0.04 μM), >0 enhanced anti-cancer activity, about 0 neutral, <0 antagonist
[14] = NCI-H292 cells, cholesterol-free media without statin, FDA drug library screen
[15] = NCI-H292 cells, complete media, FDA drug library screen
[16] = complete vs cholesterol-free media, >0 enhanced anti-cancer activity, about 0 neutral, <0 antagonist
[17] = drug in cholesterol-free media with simvastatin 0.04 μM
[18] = complete vs cholesterol-free media, greater than 0 enhanced anti-cancer activity, about 0 neutral, below 0 antagonists
[19] = complete media vs cholesterol-free media + simvastatin (0.04 μM), >0 enhanced anti-cancer activity, about 0 neutral, <0 antagonist

COC(=O)N[C@H](C(=O)N1CCC[C@H]1C(=O)Nc1ccc([C@@H]2CC[C@@H](c3ccc(NC(=O)[C@@H]4CCCN4C(=O)[C@@H](NC(=O)OC)C(C)C)cc3)N2c2ccc(C(C)(C)C)cc2)cc1)C(C)C [Ombitasvir]
Difference [1, 3]: −0.17 | Cholesterol-free [1, 4]: 1.001 | Complete [1, 5]: 0.8331 | Cholesterol-free media + simvastatin (0.04 μM) [2, 6]: 0.6017 | Complete Media [2, 7]: 0.5358 | Difference ([2]; complete media minus cholesterol-free media + simvastatin (0.04 μM), […]): −0.07

N#Cc1cc(NC(=O)C(=O)O)c(Cl)c(NC(=O)C(=O)O)c1.NC(CO)(CO)CO.NC(CO)(CO)CO [Lodoxamide (tromethamine)]
Difference ([1]; Complete minus Cholesterol-free, greater than 0 enhanced anti-cancer activity, about 0 neutral, below 0 antagonist): −0.13 | Cholesterol-free [1, 4]: 0.8848 | Complete [1, 5]: 0.7586 | Cholesterol-free media + simvastatin (0.04 μM) [2, 8]: 0.9835 | Complete Media [2, 9]: 1.282 | Difference [2, 10]: 0.30

CCOC(=O)N[C@@H]1CC[C@@H]2[C@@H](C1)C[C@H]1C(=O)O[C@H](C)[C@H]1[C@H]2/C=C/c1ccc(-c2cccc(F)c2)cn1 [Vorapaxar]
Difference [1, 11]: −0.20 | Cholesterol-free [1, 12]: 1.186 | Complete ([1]; NCI-H292 cells, complete media): 0.984 | Cholesterol-free media + simvastatin (0.04 μM) [2, 6]: 1.048 | Complete Media [2, 7]: 1.005 | Difference [2, 13]: −0.04

Carbinoxamine maleate salt
Difference [1, 11]: −0.20 | Cholesterol-free [1, 12]: 1.129 | Complete ([1]; NCI-H292 cells, complete media): 0.9247 | Cholesterol-free media + simvastatin (0.04 μM) [2, 8]: 0.757 | Complete Media [2, 9]: 1.12 | Difference [2, 10]: 0.36

CCc1nc(C(N)=O)c(Nc2ccc(N3CCC(N4CCN(C)CC4)CC3)c(OC)c2)nc1NC1CCOCC1 [Gilteritinib]
Cholesterol-free [1, 14]: 0.2961 | Complete [1, 15]: 0.7497 | Difference [1, 16]: 0.45 | Cholesterol-free media + simvastatin (0.04 μM) [2, 6]: 0.4196 | Complete Media [2, 7]: 0.3685 | Difference [2, 13]: −0.05

Bromocriptine (mesylate)
Difference [1, 3]: −0.12 | Cholesterol-free [1, 4]: 0.9359 | Complete [1, 5]: 0.8127 | Cholesterol-free media + simvastatin (0.04 μM) [2, 17]: 0.9355 | Complete Media ([2]; drug in complete media): 0.7343 | Difference ([2]; complete media vs cholesterol-free media + simvastatin (0.04 μM), […]): −0.20

CCCCCCCCCC(=O)OCCN1CCN(CCCN2c3ccccc3Sc3ccc(C(F)(F)F)cc32)CC1 [Fluphenazine decanoate]
Cholesterol-free [1, 14]: 0.4638 | Complete [1, 15]: 1.069 | Difference [1, 16]: 0.60 | Cholesterol-free media + simvastatin (0.04 μM) [2, 8]: 0.7434 | Complete Media [2, 9]: 0.9759 | Difference [2, 10]: 0.23

CC(C)C[C@H](NC(=O)[C@H](Cc1ccccc1)NC(=O)c1cnccn1)B(O)O [Bortezomib]
Difference [1, 11]: 0.00 | Cholesterol-free [1, 14]: 0.006863 | Complete [1, 15]: 0.00697 | Cholesterol-free media + simvastatin (0.04 μM) [2, 6]: 0.003233 | Complete Media [2, 7]: −0.017 | Difference [2, 13]: −0.02

O=C(O)[C@@H](S)[C@@H](S)C(=O)O [Succimer]
Cholesterol-free [1, 12]: 1.406 | Complete ([1]; NCI-H292 cells, complete media): 0.9576 | Difference [1, 18]: −0.45 | Cholesterol-free media + simvastatin (0.04 μM) [2, 17]: 1.252 | Complete Media ([2]; drug in complete media): 1.035 | Difference [2, 19]: −0.22

CC(C)/N=c1\cc2n(-c3ccc(Cl)cc3)c3ccccc3nc-2cc1Nc1ccc(Cl)cc1 [Clofazimine]
Cholesterol-free [1, 12]: 0.8398 | Complete ([1]; NCI-H292 cells, complete media): 0.4066 | Difference [1, 18]: −0.43 | Cholesterol-free media + simvastatin (0.04 μM) [2, 6]: 0.9946 | Complete Media [2, 7]: 0.9365 | Difference [2, 13]: −0.06

C#Cc1cccc(Nc2ncnc3cc4c(cc23)OCCOCCOCCO4)c1 [Icotinib (Hydrochloride)]
Difference [1, 11]: 0.05 | Cholesterol-free [1, 14]: 0.2697 | Complete [1, 15]: 0.324 | Cholesterol-free media + simvastatin (0.04 μM) [2, 6]: 0.5866 | Complete Media [2, 7]: 0.5343 | Difference [2, 13]: −0.05

Garenoxacin (Mesylate hydrate)
Cholesterol-free [1, 12]: 1.769 | Complete ([1]; NCI-H292 cells, complete media): 1.3 | Difference [1, 18]: −0.47 | Cholesterol-free media + simvastatin (0.04 μM) [2, 17]: 1.436 | Complete Media ([2]; drug in complete media): 1.268 | Difference [2, 19]: −0.17

Nc1ncn([C@H]2C[C@H](O)[C@@H](CO)O2)c(=O)n1 [Decitabine]
Difference [1, 11]: −0.25 | Cholesterol-free [1, 12]: 0.8074 | Complete ([1]; NCI-H292 cells, complete media): 0.559 | Cholesterol-free media + simvastatin (0.04 μM) ([2]; cholesterol-free media with simvastatin 0.04 μM, cell growth value in FDA drug screen): 0.7335 | Complete Media ([2]; complete media, cell growth value in FDA drug screen): 0.7733 | Difference [2, 10]: 0.04

Cc1nnc(SCC2=C(C(=O)[O-])N3C(=O)[C@@H](NC(=O)Cn4cnnn4)[C@H]3SC2)s1.[Na+] [Cefazolin (sodium)]
Difference ([1]; Complete minus Cholesterol-free, greater than 0 enhanced anti-cancer activity, about 0 neutral, below 0 antagonists): −0.79 | Cholesterol-free ([1]; NCI-H292 cells in cholesterol-free media without statin): 1.776 | Complete ([1]; NCI-H292 cells in complete media): 0.9866 | Cholesterol-free media + simvastatin (0.04 μM) ([2]; FDA library drug in cholesterol-free media with simvastatin 0.04 μM): 1.378 | Complete Media ([2]; FDA library drug in complete media): 1.076 | Difference [2, 19]: −0.30
